Where two headings read alike, the source gives them in different places.

This note sets out measurements from patent publication US7045532B2 (Millennium Pharmaceuticals, Inc., priority 1999, dated 2006).

Test [1] concerns the target T1, ACE-2 (Homo sapiens, UniProt Q9BYF1).
T1 construct: a stop codon inserted after the serine immediately preceding the transmembrane domain; made in house; host or cells: CHO K1 cells (transient transfection, purified from conditioned medium)
Briefly: ACE-2 Competitive Substrate Assay (ACS Assay). The class given is biochemical.

Test [2] concerns the target ACE-2 (Rattus norvegicus, UniProt Q5EGZ1). As to the kind of experiment: ACE-2 Competitive Substrate Assay, rat ACE-2. Format: biochemical. The conditions noted are these: Ki class; compounds tested in 5% DMSO, 12 compound concentrations.
Procedure: ACE-2 enzymatic activity was assayed in microtitre plates by the following procedure. The ACE-2 assay buffer used contained 50 mM MES (Boehringer-Mannheim), 300 mM NaCl (Sigma) and 0.01% Brij-35 (Pierce Chemical Co.) at pH 6.5.
Reactions were mixed and incubated at 25° C.
The activity of the test compounds was investigated using the procedure outlined above. The compounds were tested in 5% DMSO. Enzyme activity was measured at 12 compound concentrations.
In another test the target is T2, Carboxypeptidase A (Bos taurus, UniProt P00730).
T2 sequence (P00730 111-419): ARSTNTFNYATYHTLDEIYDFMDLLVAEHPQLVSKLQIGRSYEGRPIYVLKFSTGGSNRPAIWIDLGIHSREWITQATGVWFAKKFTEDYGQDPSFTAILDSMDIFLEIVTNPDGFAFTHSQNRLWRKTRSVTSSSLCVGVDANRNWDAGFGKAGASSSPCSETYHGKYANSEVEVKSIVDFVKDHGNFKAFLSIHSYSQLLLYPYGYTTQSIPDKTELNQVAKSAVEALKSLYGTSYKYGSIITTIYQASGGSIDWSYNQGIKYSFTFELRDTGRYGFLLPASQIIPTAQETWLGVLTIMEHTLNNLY
Briefly: Carboxypeptidase A activity assay. The class given is biochemical. The conditions noted are these: Ki class; compounds tested in 5% DMSO, 12 concentrations. Put shortly:
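Ki obtained by correcting apparent Ki for substrate, Ki=Kiapp/(1+[S]/Km), from 12-concentration series. Enzyme activity read by absorbance at 328 nm with 5% DMSO present, EDTA stop.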

The next test has as its target T3, ACE (Sigma, A2580) (Sus scrofa, UniProt F1RRW5).
T3 construct: ACE from porcine kidney; purchased Sigma A2580; host or cells: porcine kidney
T3 sequence (F1RRW5 34-1309): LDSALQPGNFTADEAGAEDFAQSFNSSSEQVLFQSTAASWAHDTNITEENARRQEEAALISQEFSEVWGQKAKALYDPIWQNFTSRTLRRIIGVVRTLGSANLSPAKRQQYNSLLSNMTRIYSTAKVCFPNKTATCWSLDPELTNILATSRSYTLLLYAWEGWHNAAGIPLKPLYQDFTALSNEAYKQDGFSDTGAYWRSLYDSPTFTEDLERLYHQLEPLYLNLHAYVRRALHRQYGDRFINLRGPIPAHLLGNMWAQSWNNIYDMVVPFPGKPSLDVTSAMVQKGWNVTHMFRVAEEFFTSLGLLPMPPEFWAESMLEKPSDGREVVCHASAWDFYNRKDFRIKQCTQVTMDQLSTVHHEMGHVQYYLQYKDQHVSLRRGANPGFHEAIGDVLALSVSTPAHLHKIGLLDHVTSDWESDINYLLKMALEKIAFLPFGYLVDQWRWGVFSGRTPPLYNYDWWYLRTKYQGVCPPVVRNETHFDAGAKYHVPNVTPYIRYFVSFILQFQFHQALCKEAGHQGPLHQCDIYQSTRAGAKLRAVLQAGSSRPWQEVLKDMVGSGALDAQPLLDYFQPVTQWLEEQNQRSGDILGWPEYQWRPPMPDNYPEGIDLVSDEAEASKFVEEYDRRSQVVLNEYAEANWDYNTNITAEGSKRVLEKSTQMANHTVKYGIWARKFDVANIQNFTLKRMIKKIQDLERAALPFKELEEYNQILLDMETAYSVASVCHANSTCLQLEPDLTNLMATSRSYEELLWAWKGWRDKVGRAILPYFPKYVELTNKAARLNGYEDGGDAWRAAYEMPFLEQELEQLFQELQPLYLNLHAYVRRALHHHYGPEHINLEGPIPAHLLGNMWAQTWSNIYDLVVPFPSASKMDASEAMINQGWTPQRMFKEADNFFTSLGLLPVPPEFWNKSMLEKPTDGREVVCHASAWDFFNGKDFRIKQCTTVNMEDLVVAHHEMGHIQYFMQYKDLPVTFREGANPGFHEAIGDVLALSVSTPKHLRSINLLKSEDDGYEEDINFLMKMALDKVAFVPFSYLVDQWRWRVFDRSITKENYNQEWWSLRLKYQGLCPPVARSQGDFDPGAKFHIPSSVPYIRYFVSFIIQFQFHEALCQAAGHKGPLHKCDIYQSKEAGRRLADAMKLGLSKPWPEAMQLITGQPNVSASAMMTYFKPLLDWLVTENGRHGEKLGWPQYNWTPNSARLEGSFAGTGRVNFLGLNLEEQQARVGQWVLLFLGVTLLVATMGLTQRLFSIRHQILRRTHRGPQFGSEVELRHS
Briefly: ACE enzymatic activity assay. The class given is biochemical, porcine. The settings on record: Ki class; compounds tested in 5% DMSO, 12 concentrations. Summed up: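 Fluorogenic substrate cleavage by 1 nM ACE, read at 320/405 nm after EDTA stop at ~30 min. Reactions at 25 °C, pH 7.5, in HEPES/NaCl/Brij-35 buffer; compounds tested at 12 concentrations in 5% DMSO.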

The mark [3] stands for this setting: Ki class, compounds tested in 5% DMSO, 12 compound concentrations, Ki=Kiapp/(1+[S]/Km), read-out: Human ACE-2 Activity.
Where [4] appears, read: Table 3, very good ACE-2 inhibiting compounds, species not given, read-out: ACE-2 Activity, Ki.
[5] abbreviates: Ki class, compounds tested in 5% DMSO, 12 concentrations, read-out: Human ACE-2 Activity.

Sequence of ACE-2 (Rattus norvegicus, UniProt Q5EGZ1) (Q5EGZ1 18-805): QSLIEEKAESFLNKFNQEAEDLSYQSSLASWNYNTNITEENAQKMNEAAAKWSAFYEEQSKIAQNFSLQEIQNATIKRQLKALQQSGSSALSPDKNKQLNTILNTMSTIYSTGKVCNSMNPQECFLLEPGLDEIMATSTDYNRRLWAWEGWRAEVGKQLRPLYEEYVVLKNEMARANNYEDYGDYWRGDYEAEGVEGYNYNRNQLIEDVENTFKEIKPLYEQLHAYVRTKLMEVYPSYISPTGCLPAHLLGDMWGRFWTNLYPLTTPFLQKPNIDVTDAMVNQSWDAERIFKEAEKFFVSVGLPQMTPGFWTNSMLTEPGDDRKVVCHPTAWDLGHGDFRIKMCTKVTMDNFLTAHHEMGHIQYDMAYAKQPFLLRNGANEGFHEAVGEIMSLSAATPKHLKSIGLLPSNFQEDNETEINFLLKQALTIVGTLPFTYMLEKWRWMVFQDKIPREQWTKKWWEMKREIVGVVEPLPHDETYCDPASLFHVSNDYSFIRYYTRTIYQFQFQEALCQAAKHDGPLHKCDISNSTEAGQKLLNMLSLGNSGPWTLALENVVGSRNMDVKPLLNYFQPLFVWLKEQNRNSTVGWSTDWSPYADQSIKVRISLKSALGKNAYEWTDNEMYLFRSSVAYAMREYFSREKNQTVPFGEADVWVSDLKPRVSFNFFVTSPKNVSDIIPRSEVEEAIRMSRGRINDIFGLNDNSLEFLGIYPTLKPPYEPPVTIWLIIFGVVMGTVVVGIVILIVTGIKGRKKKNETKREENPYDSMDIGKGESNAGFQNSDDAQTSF
T1 sequence (Q9BYF1 18-740 limits assumed): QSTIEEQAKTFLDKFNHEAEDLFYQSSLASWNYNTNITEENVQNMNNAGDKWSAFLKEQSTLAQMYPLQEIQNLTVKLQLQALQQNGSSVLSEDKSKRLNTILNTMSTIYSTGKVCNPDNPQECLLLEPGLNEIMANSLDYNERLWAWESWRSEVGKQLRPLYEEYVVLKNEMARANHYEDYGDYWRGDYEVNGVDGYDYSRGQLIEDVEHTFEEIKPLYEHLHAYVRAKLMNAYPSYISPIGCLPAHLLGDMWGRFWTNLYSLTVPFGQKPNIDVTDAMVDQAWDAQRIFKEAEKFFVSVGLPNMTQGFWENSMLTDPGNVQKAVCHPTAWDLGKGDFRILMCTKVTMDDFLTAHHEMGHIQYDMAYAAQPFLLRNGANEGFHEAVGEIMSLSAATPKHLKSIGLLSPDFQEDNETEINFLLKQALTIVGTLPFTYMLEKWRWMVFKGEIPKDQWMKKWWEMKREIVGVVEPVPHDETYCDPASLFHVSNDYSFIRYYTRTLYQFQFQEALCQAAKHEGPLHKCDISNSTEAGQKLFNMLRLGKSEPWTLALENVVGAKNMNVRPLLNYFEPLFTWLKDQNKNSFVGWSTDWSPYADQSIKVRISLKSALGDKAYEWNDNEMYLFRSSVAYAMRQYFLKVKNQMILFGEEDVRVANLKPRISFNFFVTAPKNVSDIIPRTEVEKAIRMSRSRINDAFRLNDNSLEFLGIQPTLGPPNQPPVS

As to `CC(C)CC(N[C@@H](Cc1cncn1Cc1ccc(F)cc1)C(=O)O)C(=O)O` (single isomer, unassigned) [II, 2-[1-Carboxy-2-[3-(4-fluoro-benzyl)-3H-imidazol-4-yl]-ethylamino]4-methyl-pentanoic acid], the Ki at ACE-2 [1] (setting [3]) is < 0.1 µM; at ACE-2 [1] (setting [4]) it was 0.05 to 0.1 µM; at ACE-2 [2], < 0.1 µM.
Turning to `CC(C)CC(N[C@@H](Cc1cncn1Cc1cccc(Cl)c1Cl)C(=O)O)C(=O)O` (single isomer, unassigned) [IX, 2-[1-Carboxy-2-[3-(2,3-dichloro-benzyl)-3H-imidazol-4-yl]-ethylamino]4-methyl-pentanoic acid], the Ki on ACE-2 [1] (setting [3]) is > 0.5 µM; on ACE-2 [1] (setting [4]), < 0.05 µM; at ACE-2 [2], < 0.1 µM.
For `CC(C)CC(N[C@@H](Cc1cncn1Cc1cccc(C(F)(F)F)c1)C(=O)O)C(=O)O` (single isomer, unassigned) [IZ, 2-[1-Carboxy-2-[3-(3-trifluoromethyl-benzyl)-3H-imidazol-4-yl]-ethylamino]4-methyl-pentanoic acid], the Ki was < 0.1 µM on ACE-2 [1] (setting [3]), < 0.05 µM on ACE-2 [1] (setting [4]) and < 0.1 µM on ACE-2 [2].
With `CC(C)CC(N[C@@H](Cc1cncn1Cc1cc(Cl)ccc1Cl)C(=O)O)C(=O)O` (single isomer, unassigned) [JB, 2-[1-Carboxy-2-[3-(2,5-dichloro-benzyl)-3H-imidazol-4-yl]-ethylamino]4-methyl-pentanoic acid], the Ki is < 0.1 µM on ACE-2 [1] (setting [3]), < 0.05 µM on ACE-2 [1] (setting [4]) and < 0.1 µM at ACE-2 [2].
As for `CC(C)CC(N[C@@H](Cc1cncn1Cc1ccc2c(c1)OCO2)C(=O)O)C(=O)O` (single isomer, unassigned) [JE], the Ki at ACE-2 [1] (setting [3]) is < 0.1 µM; at ACE-2 [1] (setting [4]), < 0.05 µM; on ACE-2 [2] it was < 0.1 µM.
For the molecule `CC(C)CC(N[C@@H](Cc1cncn1CCC1CCCCC1)C(=O)O)C(=O)O` (single isomer, unassigned) [JI, 2-[1-Carboxy-2-[3-(2-cyclohexyl-ethyl)-3H-imidazol-4-yl]-ethylamino]4-methyl-pentanoic acid], the Ki at ACE-2 [1] (setting [3]) is < 0.1 µM; at ACE-2 [1] (setting [4]), < 0.05 µM; at ACE-2 [2], < 0.1 µM.
With `CC(C)CC(N[C@@H](Cc1cncn1CCc1ccccc1)C(=O)O)C(=O)O` (single isomer, unassigned) [JK, 2-[1-Carboxy-2-[3-phenethyl-3H-imidazol-4-yl)-ethylamino]-4-methyl-pentanoic acid], the Ki on ACE-2 [1] (setting [3]) and at ACE-2 [2] was < 0.1 µM throughout.
Regarding `CC(C)CC(N[C@@H](Cc1cncn1Cc1cccc(I)c1)C(=O)O)C(=O)O` (single isomer, unassigned) [JO, 2-[1-Carboxy-2-[3-(3-iodobenzyl)-3H-imidazol-4-yl]-ethylamino]-4-methyl-pentanoic acid], the figures for the Ki on ACE-2 [1] (setting [3]), at ACE-2 [1] (setting [4]) and on ACE-2 [2] were < 0.1 µM, < 0.05 µM and < 0.1 µM, respectively.
With `CC(C)CC(N[C@@H](Cc1cncn1Cc1cccc(F)c1)C(=O)O)C(=O)O` (single isomer, unassigned) [JQ, 2-[1-Carboxy-2-[3-(3-fluoro-benzyl)-3H-imidazol-4-yl]-ethylamino]4-methyl-pentanoic acid], the Ki was < 0.1 µM at ACE-2 [1] (setting [3]), < 0.05 µM on ACE-2 [1] (setting [4]) and < 0.1 µM on ACE-2 [2].
Turning to `CC(C)CC(N[C@H](CC(=O)O)Cc1cccs1)C(=O)O` (some centres unmarked) [EI, 2-(1-Carboxymethyl-2-thiophen-2-yl-ethylamino)-4-methyl-pentanoic acid], the Ki on Carboxypeptidase A is > 50 µM; on ACE (Sigma, A2580), > 50 µM; at ACE-2 [1] (setting [5]), > 0.5 µM.
In the case of `O=C(O)C(Cc1ccccc1)N[C@@H](Cc1cnc[nH]1)C(=O)O` (some centres unmarked) [EK, 2-(1-Carboxy-2-phenyl-ethylamino)-3-(3H-imidazol-4-yl)-propionicacid], the Ki on Carboxypeptidase A is 10 to 50 µM; at ACE (Sigma, A2580), 10 to 50 µM; at ACE-2 [1] (setting [5]), > 0.5 µM.
As for `COc1ccc(C#CC[C@H](N[C@@H](CCc2ccccc2)C(=O)O)C(=O)O)cc1` [FR, 2-(1-Carboxy-3-phenyl-propylamino)-5-(4-methoxy-phenyl)-pent-4-ynoic acid], the Ki on Carboxypeptidase A is > 50 µM; at ACE (Sigma, A2580), > 50 µM; at ACE-2 [1] (setting [5]), > 0.5 µM.
For the molecule `CC(C)CC(N[C@@H](Cc1csc(-c2ccccc2)n1)C(=O)O)C(=O)O` (some centres unmarked) [IL, 2-[1-Carboxy-2-(2-phenyl-thiazol-4-yl)-ethylamino]-4-methyl-pentanoic acid], the Ki on ACE-2 [1] (setting [3]) is 0.1 to 0.5 µM; at ACE-2 [1] (setting [4]), 0.05 to 0.1 µM; at ACE-2 [2] it was < 0.1 µM.
Consider `CC(N[C@@H](Cc1c[nH]cn1)C(=O)O)C(=O)O` (some centres unmarked) [N, 2-(1-Carboxy-ethylamino)-3-(1H-imidazol-4-yl)-propionic acid], for which the Ki on Carboxypeptidase A is > 50 µM; on ACE (Sigma, A2580) it was > 50 µM; at ACE-2 [1] (setting [5]) it was > 0.5 µM.
In the case of `C[C@H](N[C@@H](CCc1ccccc1)C(=O)O)C(=O)O` [P, 2-(1-Carboxy-ethylamino)-4-phenyl-butync acid], the Ki is > 50 µM at Carboxypeptidase A; > 50 µM on ACE (Sigma, A2580); > 0.5 µM at ACE-2 [1] (setting [5]).
`CCCCC(N[C@@H](CC(C)C)C(=O)O)C(=O)O` (some centres unmarked) [Q, 2-(1-Carboxy-3-methyl-butylamino)-hexanoic acid]: the Ki at Carboxypeptidase A was > 50 µM; on ACE (Sigma, A2580), > 50 µM; at ACE-2 [1] (setting [5]), > 0.5 µM.
With `CC(C)C[C@H](N[C@H](Cc1ccccc1)C(=O)O)C(=O)O` [T, 2-(1-Carboxy-2-phenyl-ethylamino)-4-methyl-pentanoic acid], the Ki at Carboxypeptidase A is 10 to 50 µM; on ACE (Sigma, A2580), > 50 µM; at ACE-2 [1] (setting [5]), > 0.5 µM.
For the molecule `CC(C)C[C@@H](C(=O)O)N(C)C(CCc1ccccc1)C(=O)O` (some centres unmarked) [V, 2-[(1-Carboxy-3-phenyl-propyl)-methyl-amino]-4-methyl-pentanoic acid], the Ki at Carboxypeptidase A is > 50 µM; on ACE (Sigma, A2580), > 50 µM; on ACE-2 [1] (setting [5]), > 0.5 µM.
Consider `CCC(NC(Cc1c[nH]c2ccccc12)C(=O)O)C(=O)O` (centres unmarked) [W, 2-[1-Carboxy-2-(1H-indol-3-yl)-ethylamino]-butync acid], for which the Ki at Carboxypeptidase A is > 50 µM; at ACE (Sigma, A2580), > 50 µM; on ACE-2 [1] (setting [5]), > 0.5 µM.
In the case of `CCCC(N[C@H](Cc1c[nH]c2ccccc12)C(=O)O)C(=O)O` (some centres unmarked) [X, 2-[1-Carboxy-2-(1H-indol-3-yl)-ethylamino]-pentanoic acid], the Ki on Carboxypeptidase A was > 50 µM; at ACE (Sigma, A2580) it was > 50 µM; at ACE-2 [1] (setting [5]) it was > 0.5 µM.
On to `CSCC[C@H](NC(CCc1ccccc1)C(=O)O)C(=O)O` (some centres unmarked) [Y, 2-(1-Carboxy-3-methylsulfanyl-propylamino)-4-phenyl-butync acid], for which the Ki on Carboxypeptidase A was > 50 µM; on ACE (Sigma, A2580) it was > 50 µM; on ACE-2 [1] (setting [5]) it was > 0.5 µM.
For `CCC(N[C@@H](CCSC)C(=O)O)C(=O)O` (some centres unmarked) [Z, 2-(1-Carboxy-propylamino)-4-methylsulfanyl-butyncacid], the Ki is > 50 µM at Carboxypeptidase A; > 50 µM on ACE (Sigma, A2580); > 0.5 µM at ACE-2 [1] (setting [5]).
